Experimental data published in patent US5508456A, “9-cis tritium-labeled retinoids and intermediates, methods for their synthesis and methods for their use in discovering retinoid X receptor ligands” (Ligand Pharmaceuticals Incorporated, priority 1994, dated 1996).
Entries after “also recorded” stand apart in the source; their conditions may differ.

Tests used:
RARs and RXRs [1] = assay: Binding to RARs and RXRs (summary over all six receptors); settings: RARα,β,γ and RXRα,β,γ
RARs and RXRs [2] = settings: Heyman et al., Cell, 68:397 (1992); cited from earlier work
RXRs = assay: Binding to RXRs (summary)
RARs and RXRs [3] = assay: Binding to and modulating gene expression via RARs and RXRs; settings: labeled retinoid

SMILES	binding to / activity on RARs and RXRs, in words (RARs and RXRs [1])	binding to / activity on RARs and RXRs, in words (RARs and RXRs [1]; listed as 9-cis retinoic acid)	binding to and modulating gene expression via the RARs and RXRs, in words (RARs and RXRs [2])	binding to RXRs, in words (RXRs)	binding to / activity on RARs and RXRs, in words (RARs and RXRs [1]; listed as all-trans retinoic acid (ATRA))	binding with, and modulating gene expression from, both RARs and RXRs, in words (RARs and RXRs [3])
CC1=C(/C=C/C(C)=C\C=C\C(C)=C\C(=O)O)C(C)(C)CCC1 [9-cis RA, (2E,4E,6Z,8E)-3.7-Dimethyl-9-(2,6,6-trimethylcyclohexen-1-yl)nona-2.4.6.8-tetraenoic acid]	active on all six known retinoid receptors	effectively binds to all six receptors; also recorded: binds to the RARs and RXRs with high affinity in a saturable and specific manner	capable of binding to and modulating gene expression via the RARs and RXRs			
CC1=C(/C=C/C(C)=C/C=C/C(C)=C/C(=O)O)C(C)(C)CCC1 [ATRA, all-trans retinoic acid]	only binds to the RARs			does not bind to RXRs	only active on RARα,β,γ	
[3H]C(/C=C(C)\C=C\C1=C(C)CCCC1(C)C)=C\C(C)=C\C(=O)O [monotritium-labeled 9-cis RA, (2E,4E,6Z,8E)-5-[^3 H]-3,7-Dimethyl-9-(2,6,6-trimethylcyclohexen-1-yl)nona-2,4,6,8-tetraenoic acid]	binds to all the known RARs and RXRs with approximately equal nanomolar affinities					capable of binding with, and modulating gene expression from, both RARs and RXRs
